Reference: PubChem BioAssay (NCI)
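Interpolation was linear, between the two tested concentrations surrounding the appropriate level; five concentrations were tested over 48 hours in 96-well plates. GI50: concentration for 50% inhibition of growth. The concentration for full growth arrest is given as TGI.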

How the values were obtained:
Assay in all cases: NCI tumour cell line growth inhibition, 48 h
[1] = tested on: DU-145 prostate
[2] = tested on: HOP-92 NSCLC
[3] = tested on: EKVX NSCLC
[4] = tested on: SK-MEL-28 melanoma
[5] = tested on: NCI-H23 lung
[6] = tested on: HS 578T breast
[7] = tested on: MDA-MB-231 breast
[8] = tested on: 786-0 renal
[9] = tested on: T-47D breast
[10] = tested on: NCI/ADR-RES ovarian
[11] = tested on: RPMI-8226 leukemia
[12] = tested on: M14 melanoma
[13] = tested on: NCI-H460 lung
[14] = tested on: SR leukemia
[15] = tested on: BT-549 breast
[16] = tested on: OVCAR-5 ovarian
[17] = tested on: SF-539 CNS
[18] = tested on: SN12C renal
[19] = tested on: K-562 leukemia
[20] = tested on: NCI-H226 lung
[21] = tested on: KM12 colon
[22] = tested on: HCC-2998 colon
[23] = tested on: NCI-H522 lung
[24] = tested on: SK-OV-3 ovarian
[25] = tested on: LOX IMVI melanoma
[26] = tested on: SNB-75 CNS
[27] = tested on: TK-10 renal
[28] = tested on: MCF7 breast
[29] = tested on: ACHN renal
[30] = tested on: HOP-62 NSCLC
[31] = tested on: UACC-62 melanoma
[32] = tested on: RXF 393 renal
[33] = tested on: A549 NSCLC
[34] = tested on: SK-MEL-5 melanoma
[35] = tested on: SNB-19 CNS
[36] = tested on: CCRF-CEM leukemia
[37] = tested on: U251 CNS
[38] = tested on: SF-295 CNS
[39] = tested on: UACC-257 melanoma
[40] = tested on: MDA-MB-435
[41] = tested on: SK-MEL-2 melanoma
[42] = tested on: PC-3 prostate
[43] = tested on: HCT-15 colon
[44] = tested on: OVCAR-8 ovarian
[45] = tested on: HCT-116 colon
[46] = tested on: CAKI-1 renal
[47] = tested on: COLO 205 colon
[48] = tested on: SW-620 colon
[49] = tested on: HL-60(TB) leukemia
[50] = tested on: OVCAR-4 ovarian
[51] = tested on: MALME-3M melanoma
[52] = tested on: SF-268 CNS
[53] = tested on: UO-31 renal
[54] = tested on: MOLT-4 leukemia
[55] = tested on: A498 renal
[56] = tested on: OVCAR-3 ovarian
[57] = tested on: HT29 colon
[58] = tested on: IGROV1 ovarian

`O=C(Nc1ccc(Oc2cccc(Cl)c2)c(Cl)c1)c1cnccn1` was tested, and the GI50 [1] was 0.839 µM, the TGI [1] was over 50 µM and the GI50 [2] was 0.673 µM. It also gave a TGI [2] of over 32.8 µM, a GI50 [3] of 0.771 µM and a TGI [3] of over 50 µM. It also gave a GI50 [4] of 14.1 µM, a TGI [4] of over 50 µM and a GI50 [5] of 0.903 µM. For the same molecule, the TGI [5] was over 50 µM, the GI50 [6] was 0.214 µM and the TGI [6] was over 50 µM. The GI50 [7] was 0.452 µM, the TGI [7] was over 40 µM and the GI50 [8] was 2.16 µM. The TGI [8] was over 50 µM, the GI50 [9] was 0.46 µM and the TGI [9] was over 50 µM. For the same molecule, the GI50 [10] was 0.265 µM, the TGI [10] was over 11.8 µM and the GI50 [11] was 0.323 µM. It also gave a TGI [11] of over 50 µM, a GI50 [12] of 0.225 µM and a TGI [12] of over 50 µM. The GI50 [13] was 0.245 µM, the TGI [13] was over 50 µM and the GI50 [14] was 0.145 µM. The TGI [14] was over 50 µM, the GI50 [15] was 3.31 µM and the TGI [15] was over 50 µM. The GI50 [16] was 1.6 µM, the TGI [16] was over 50 µM and the GI50 [17] was 0.306 µM. It also gave a TGI [17] of 1.72 µM, a GI50 [18] of 2.56 µM and a TGI [18] of over 50 µM. For the same molecule, the GI50 [19] was 0.162 µM, the TGI [19] was over 50 µM and the GI50 [20] was 1.73 µM. The TGI [20] was over 29.8 µM, the GI50 [21] was 0.18 µM and the TGI [21] was over 50 µM. The GI50 [22] was 5.31 µM, the TGI [22] was over 36 µM and the GI50 [23] was 0.296 µM. For the same molecule, the TGI [23] was 2.55 µM, the GI50 [24] was 11.5 µM and the TGI [24] was over 50 µM. The GI50 [25] was 0.275 µM, the TGI [25] was over 50 µM and the GI50 [26] was 0.258 µM. The TGI [26] was 2.33 µM, the GI50 [27] was 3.01 µM and the TGI [27] was over 50 µM. The GI50 [28] was 0.183 µM, the TGI [28] was over 50 µM and the GI50 [29] was 3.63 µM. For the same molecule, the TGI [29] was over 50 µM, the GI50 [30] was 0.368 µM and the TGI [30] was over 50 µM. It also gave a GI50 [31] of 0.345 µM, a TGI [31] of over 50 µM and a GI50 [32] of 0.831 µM. The TGI [32] was 3.47 µM, the GI50 [33] was 0.312 µM and the TGI [33] was over 50 µM. It also gave a GI50 [34] of 0.28 µM, a TGI [34] of over 50 µM and a GI50 [35] of 0.338 µM. The TGI [35] was over 50 µM, the GI50 [36] was 0.367 µM and the TGI [36] was over 50 µM. For the same molecule, the GI50 [37] was 0.245 µM, the TGI [37] was over 22.9 µM and the GI50 [38] was 0.48 µM. The TGI [38] was over 25.1 µM, the GI50 [39] was over 20 µM and the TGI [39] was over 50 µM. For the same molecule, the GI50 [40] was 0.109 µM, the TGI [40] was 0.29 µM and the GI50 [41] was 0.352 µM. It also gave a TGI [41] of over 50 µM, a GI50 [42] of 1.06 µM and a TGI [42] of over 50 µM. It also gave a GI50 [43] of 0.171 µM, a TGI [43] of over 50 µM and a GI50 [44] of 1.41 µM. The TGI [44] was over 50 µM, the GI50 [45] was 0.21 µM and the TGI [45] was over 50 µM. The GI50 [46] was 0.844 µM, the TGI [46] was over 50 µM and the GI50 [47] was 0.208 µM. For the same molecule, the TGI [47] was 16.2 µM, the GI50 [48] was 0.216 µM and the TGI [48] was over 50 µM. The GI50 [49] was 0.556 µM, the TGI [49] was 8.95 µM and the TGI [50] was over 50 µM. It also gave a GI50 [51] of 1.92 µM, a TGI [51] of over 50 µM and a GI50 [52] of 1.14 µM. For the same molecule, the TGI [52] was over 50 µM, the GI50 [53] was 1.91 µM and the TGI [53] was over 50 µM. It also gave a GI50 [54] of 0.371 µM, a TGI [54] of over 50 µM and a GI50 [55] of 5.85 µM. It also gave a TGI [55] of 28.2 µM, a GI50 [56] of 0.198 µM and a TGI [56] of 1.16 µM. It also gave a GI50 [57] of 0.168 µM, a TGI [57] of over 20.3 µM and a GI50 [58] of 0.363 µM. For the same molecule, the TGI [58] was over 50 µM.
